What was measured:
Test in all cases: Kinase profiling screen (radioactive filter-binding assay)
Type in all cases: biochemical
BRSK1 = target: T1, BRSK1 (Homo sapiens, UniProt Q8TDC3); conditions: 100 μM compound, 20 μM ATP; read-out: Kinase activity, % of activity in the absence of inhibitor
T1 sequence (Q8TDC3 1-778): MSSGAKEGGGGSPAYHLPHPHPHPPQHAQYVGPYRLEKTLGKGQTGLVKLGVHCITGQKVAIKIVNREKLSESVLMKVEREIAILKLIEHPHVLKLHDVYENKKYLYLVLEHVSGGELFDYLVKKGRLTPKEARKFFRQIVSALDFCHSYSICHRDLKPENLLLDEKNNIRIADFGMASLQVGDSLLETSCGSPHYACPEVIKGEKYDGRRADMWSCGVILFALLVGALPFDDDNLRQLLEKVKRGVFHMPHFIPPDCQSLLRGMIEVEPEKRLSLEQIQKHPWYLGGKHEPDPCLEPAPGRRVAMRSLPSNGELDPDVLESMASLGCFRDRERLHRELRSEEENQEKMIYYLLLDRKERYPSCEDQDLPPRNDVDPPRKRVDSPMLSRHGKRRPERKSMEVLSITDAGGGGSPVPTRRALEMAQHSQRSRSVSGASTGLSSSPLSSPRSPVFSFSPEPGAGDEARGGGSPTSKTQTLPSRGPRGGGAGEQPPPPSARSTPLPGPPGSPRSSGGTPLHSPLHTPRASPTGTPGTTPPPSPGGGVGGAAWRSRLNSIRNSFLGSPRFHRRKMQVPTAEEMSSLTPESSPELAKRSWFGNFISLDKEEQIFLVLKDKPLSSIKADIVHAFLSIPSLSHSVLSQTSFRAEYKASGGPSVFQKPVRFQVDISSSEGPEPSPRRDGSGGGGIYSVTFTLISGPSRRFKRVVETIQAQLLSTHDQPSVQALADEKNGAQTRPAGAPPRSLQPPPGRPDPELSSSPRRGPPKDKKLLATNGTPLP
How it was run: (§1)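 Single-point in vitro screen: 100 μM final of CoA, dpCoA and ADP, run in duplicate against recombinant kinase with a model substrate and optimal ATP.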

MEKK1 = MEKK1 (Homo sapiens, UniProt Q13233); conditions: 100 μM compound, 20 μM ATP; read-out: Kinase activity, % of activity in the absence of inhibitor
Sequence of MEKK1 (Q13233 whole entry): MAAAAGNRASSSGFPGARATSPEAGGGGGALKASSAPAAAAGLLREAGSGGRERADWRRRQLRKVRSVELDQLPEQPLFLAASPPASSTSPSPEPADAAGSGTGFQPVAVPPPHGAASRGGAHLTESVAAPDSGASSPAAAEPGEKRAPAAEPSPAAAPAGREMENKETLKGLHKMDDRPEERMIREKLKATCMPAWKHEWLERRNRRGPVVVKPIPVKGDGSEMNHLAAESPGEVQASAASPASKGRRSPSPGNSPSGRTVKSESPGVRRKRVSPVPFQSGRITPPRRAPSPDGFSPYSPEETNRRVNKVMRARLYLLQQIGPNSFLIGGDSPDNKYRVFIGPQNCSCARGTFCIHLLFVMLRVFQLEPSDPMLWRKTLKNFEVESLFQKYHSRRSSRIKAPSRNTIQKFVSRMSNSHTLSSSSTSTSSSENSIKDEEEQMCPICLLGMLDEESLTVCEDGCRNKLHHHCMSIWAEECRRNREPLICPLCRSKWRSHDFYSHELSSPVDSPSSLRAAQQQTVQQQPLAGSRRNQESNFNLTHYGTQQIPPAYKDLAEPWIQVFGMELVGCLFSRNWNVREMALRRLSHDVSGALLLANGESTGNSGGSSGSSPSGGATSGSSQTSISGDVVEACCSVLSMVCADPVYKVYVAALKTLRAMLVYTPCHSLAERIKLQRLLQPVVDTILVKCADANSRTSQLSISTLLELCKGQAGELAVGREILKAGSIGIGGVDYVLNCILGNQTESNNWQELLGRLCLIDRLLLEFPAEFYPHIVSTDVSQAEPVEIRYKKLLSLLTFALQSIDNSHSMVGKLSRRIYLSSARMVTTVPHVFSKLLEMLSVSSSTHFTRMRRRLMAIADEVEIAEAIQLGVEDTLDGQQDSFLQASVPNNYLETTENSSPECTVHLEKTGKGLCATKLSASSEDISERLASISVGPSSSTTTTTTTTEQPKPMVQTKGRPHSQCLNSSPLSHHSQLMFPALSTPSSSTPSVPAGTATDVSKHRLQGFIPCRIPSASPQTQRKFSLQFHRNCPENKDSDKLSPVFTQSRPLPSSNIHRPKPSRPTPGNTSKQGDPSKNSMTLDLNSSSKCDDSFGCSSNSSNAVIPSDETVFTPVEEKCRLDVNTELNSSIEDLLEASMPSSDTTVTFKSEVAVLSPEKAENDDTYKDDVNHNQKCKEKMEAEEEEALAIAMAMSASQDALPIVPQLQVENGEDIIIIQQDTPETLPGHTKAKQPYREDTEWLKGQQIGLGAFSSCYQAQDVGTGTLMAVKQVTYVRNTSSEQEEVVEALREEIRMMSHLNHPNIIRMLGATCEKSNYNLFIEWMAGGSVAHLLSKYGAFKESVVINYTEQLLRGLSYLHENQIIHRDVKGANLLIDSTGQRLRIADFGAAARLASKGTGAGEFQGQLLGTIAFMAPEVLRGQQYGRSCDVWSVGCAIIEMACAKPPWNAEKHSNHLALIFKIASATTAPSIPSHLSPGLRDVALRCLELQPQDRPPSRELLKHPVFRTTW
How it was run: as §1

EPH-B1 = target: T2, EPH-B1 (Homo sapiens, UniProt P54762); conditions: 100 μM compound, 20 μM ATP; read-out: Kinase activity, % of activity in the absence of inhibitor
T2 sequence (P54762 18-984): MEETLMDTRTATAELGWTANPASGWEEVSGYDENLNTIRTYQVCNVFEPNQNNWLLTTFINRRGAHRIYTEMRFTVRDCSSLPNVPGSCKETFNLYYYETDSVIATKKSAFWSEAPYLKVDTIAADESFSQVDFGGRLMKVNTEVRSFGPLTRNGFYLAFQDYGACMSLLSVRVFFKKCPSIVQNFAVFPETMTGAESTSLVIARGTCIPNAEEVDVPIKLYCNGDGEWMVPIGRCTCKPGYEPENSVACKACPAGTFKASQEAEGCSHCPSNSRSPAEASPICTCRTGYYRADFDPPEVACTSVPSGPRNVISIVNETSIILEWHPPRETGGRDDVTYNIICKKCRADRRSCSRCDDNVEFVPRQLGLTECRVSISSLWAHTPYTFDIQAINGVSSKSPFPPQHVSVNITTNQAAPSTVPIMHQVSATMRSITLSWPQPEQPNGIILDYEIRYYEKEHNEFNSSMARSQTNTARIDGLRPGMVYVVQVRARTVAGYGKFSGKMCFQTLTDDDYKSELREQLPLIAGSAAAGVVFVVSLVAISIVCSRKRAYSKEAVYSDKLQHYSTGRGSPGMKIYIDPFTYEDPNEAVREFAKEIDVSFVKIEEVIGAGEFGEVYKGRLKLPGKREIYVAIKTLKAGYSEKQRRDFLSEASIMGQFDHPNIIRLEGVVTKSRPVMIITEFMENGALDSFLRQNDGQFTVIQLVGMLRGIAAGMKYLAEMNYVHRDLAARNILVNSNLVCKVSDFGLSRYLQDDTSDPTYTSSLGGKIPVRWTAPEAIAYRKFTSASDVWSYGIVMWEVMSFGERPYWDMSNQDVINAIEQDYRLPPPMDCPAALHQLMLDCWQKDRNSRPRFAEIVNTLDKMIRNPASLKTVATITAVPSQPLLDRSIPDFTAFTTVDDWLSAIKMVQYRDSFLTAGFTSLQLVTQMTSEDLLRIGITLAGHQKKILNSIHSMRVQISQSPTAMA
How it was run: as §1

HIPK3 = HIPK3 (Homo sapiens, UniProt Q9H422); conditions: 100 μM compound, 20 μM ATP; read-out: Kinase activity, % of activity in the absence of inhibitor
Sequence of HIPK3 (Q9H422 whole entry): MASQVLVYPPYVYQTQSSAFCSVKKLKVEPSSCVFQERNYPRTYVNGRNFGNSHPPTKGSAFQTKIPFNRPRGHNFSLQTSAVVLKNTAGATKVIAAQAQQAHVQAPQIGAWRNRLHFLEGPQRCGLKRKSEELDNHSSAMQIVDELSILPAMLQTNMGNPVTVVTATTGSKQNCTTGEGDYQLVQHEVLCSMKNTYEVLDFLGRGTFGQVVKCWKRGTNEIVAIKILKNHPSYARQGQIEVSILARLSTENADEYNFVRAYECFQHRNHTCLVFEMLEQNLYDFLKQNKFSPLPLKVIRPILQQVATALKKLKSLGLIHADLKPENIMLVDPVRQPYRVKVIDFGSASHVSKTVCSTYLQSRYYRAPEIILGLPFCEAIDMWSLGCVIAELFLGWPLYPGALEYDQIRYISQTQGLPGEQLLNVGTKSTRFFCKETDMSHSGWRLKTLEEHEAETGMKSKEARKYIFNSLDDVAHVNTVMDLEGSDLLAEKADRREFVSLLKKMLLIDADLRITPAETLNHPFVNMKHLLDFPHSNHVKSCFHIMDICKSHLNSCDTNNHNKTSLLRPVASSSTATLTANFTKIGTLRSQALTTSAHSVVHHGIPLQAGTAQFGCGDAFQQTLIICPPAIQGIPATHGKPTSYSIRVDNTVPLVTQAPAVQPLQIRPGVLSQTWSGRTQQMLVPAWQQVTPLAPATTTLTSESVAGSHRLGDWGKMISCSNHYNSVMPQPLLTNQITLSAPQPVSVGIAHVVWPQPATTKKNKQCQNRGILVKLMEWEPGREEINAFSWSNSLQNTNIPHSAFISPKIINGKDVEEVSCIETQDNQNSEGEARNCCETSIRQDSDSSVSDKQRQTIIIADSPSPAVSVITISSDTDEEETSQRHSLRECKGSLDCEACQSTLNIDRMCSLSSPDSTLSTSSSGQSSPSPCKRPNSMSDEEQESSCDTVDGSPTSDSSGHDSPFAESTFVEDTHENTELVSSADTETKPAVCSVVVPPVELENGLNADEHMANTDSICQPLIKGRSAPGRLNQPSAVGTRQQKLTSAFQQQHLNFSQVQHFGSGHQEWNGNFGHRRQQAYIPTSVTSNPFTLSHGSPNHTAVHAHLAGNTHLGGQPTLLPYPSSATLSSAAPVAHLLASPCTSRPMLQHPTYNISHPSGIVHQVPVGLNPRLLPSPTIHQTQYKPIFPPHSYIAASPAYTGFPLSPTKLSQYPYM
How it was run: as §1

TBK1 = target: T3, TBK1 (Homo sapiens, UniProt Q9UHD2); conditions: 100 μM compound, 50 μM ATP; read-out: Kinase activity, % of activity in the absence of inhibitor
T3 sequence (Q9UHD2 1-729): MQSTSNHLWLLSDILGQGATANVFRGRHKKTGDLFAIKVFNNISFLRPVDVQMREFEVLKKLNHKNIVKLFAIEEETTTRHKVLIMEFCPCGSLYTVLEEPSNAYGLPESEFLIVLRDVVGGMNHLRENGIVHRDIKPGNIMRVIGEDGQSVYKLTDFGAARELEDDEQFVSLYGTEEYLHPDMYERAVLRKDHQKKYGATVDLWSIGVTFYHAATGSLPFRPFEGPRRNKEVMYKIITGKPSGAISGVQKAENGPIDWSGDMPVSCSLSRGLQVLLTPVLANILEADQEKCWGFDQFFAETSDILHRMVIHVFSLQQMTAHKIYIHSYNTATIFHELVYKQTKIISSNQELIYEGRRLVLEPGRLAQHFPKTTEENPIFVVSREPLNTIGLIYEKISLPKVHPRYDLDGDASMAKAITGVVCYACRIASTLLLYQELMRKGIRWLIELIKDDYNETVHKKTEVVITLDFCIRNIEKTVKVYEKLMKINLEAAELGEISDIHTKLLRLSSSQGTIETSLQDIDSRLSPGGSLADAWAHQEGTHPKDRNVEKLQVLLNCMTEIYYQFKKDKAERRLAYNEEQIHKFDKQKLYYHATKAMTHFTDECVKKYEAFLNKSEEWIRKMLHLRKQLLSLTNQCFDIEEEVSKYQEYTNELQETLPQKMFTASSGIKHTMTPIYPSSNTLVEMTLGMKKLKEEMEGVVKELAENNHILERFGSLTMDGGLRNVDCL
How it was run: as §1

With `CC(C)(COP(=O)(O)OP(=O)(O)OC[C@H]1O[C@@H](n2cnc3c(N)ncnc32)[C@H](O)[C@@H]1OP(=O)(O)O)[C@@H](O)C(=O)NCCC(=O)NCCS` [CoA, Coenzyme A] the activity at 100 µM (BRSK1) was 110%, the activity at 100 µM (MEKK1) was 96.3% and the activity at 100 µM (EPH-B1) was 117%. It also gave an activity at 100 µM (HIPK3) of 123% and an activity at 100 µM (TBK1) of 106%.
In the case of `Nc1ncnc2c1ncn2C1OC(COP(=O)(O)OP(=O)(O)O)C(O)C1O` (stereo not drawn) [ADP], the activity at 100 µM (BRSK1) is reported as 42.8%, the activity at 100 µM (MEKK1) is reported as 68.1% and the activity at 100 µM (EPH-B1) is reported as 11.6%. For the same compound, the activity at 100 µM (HIPK3) was 34.2% and the activity at 100 µM (TBK1) was 95.1%.
In the case of `CC(C)(COP(=O)(O)OP(=O)(O)OCC1OC(n2cnc3c(N)ncnc32)C(O)C1O)C(O)C(=O)NCCC(=O)NCCS` (stereo not drawn) [dpCoA, dephospho-CoA], the activity at 100 µM (BRSK1) is reported as 96.4%, the activity at 100 µM (MEKK1) is reported as 106% and the activity at 100 µM (EPH-B1) is reported as 80%. For the same compound, the activity at 100 µM (HIPK3) was 91.5% and the activity at 100 µM (TBK1) was 110%.

Reference: publication PMC6812009, “Covalent Aurora A regulation by the metabolic integrator coenzyme A” (Redox Biology, 2019)
